Measurements: ChEMBL document CHEMBL4118056, “Antitubercular Activity of Mycelium-Associated Ganoderma Lanostanoids” (J Nat Prod, 2017)
In brackets after ≈: the same amount, converted by molar mass.

Key:
[1] = test system: Mycobacterium tuberculosis; test: Antitubercular activity against Mycobacterium tuberculosis H37Ra by GFP based microplate assay; assay type: functional
Vero [2] = test: Cytotoxicity against African green monkey Vero cells by GFP based microplate assay; assay type: cell-based; conditions: Chlorocebus sabaeus
Vero [3] = test: Cytotoxicity against African green monkey Vero cells; assay type: cell-based; conditions: Chlorocebus sabaeus
[4] = test system: Mycobacterium tuberculosis; test: Antitubercular activity against Mycobacterium tuberculosis H37Ra; assay type: functional

Row | SMILES | MIC [1] [µg/mL] | IC50 (Vero [2]) [µM] | IC50 (Vero [3]) [µM] | MIC [4] [µg/mL]
1 | CC(=O)O[C@H]1CC[C@]2(C)C3=C([C@H](O)C[C@H]2C1(C)C)[C@]1(C)[C@@H](O)C[C@H]([C@H](C)CC/C=C(\C)C(=O)O)[C@@]1(C)CC3 | 50 (≈ 94.2 µM) | 39 |  | 
2 | CC(=O)O[C@H]1C[C@H]([C@H](C)CC/C=C(\C)C(=O)O)[C@@]2(C)CC=C3C(=CC[C@H]4C(C)(C)C(=O)CC[C@]34C)[C@]12C | 12.5 (≈ 24.5 µM) | > 98 |  | 
3 | CC(=O)O[C@@H](C/C=C(\C)C(=O)O)[C@@H](C)[C@H]1CC[C@@]2(C)C3=CC[C@H]4C(C)(C)[C@H](OC(C)=O)CC[C@]4(C)C3=CC[C@]12C | 50 (≈ 90.1 µM) | 32 |  | 
4 | CC(=O)O[C@@H](C/C=C(\C)C(=O)O)[C@@H](C)[C@H]1C[C@H](O)[C@@]2(C)C3=C(CC[C@]12C)[C@@]1(C)CC[C@H](OC(C)=O)C(C)(C)[C@@H]1C[C@H]3OC(C)=O | 12.5 (≈ 19.8 µM) | 77 |  | 
5 | CC(=O)O[C@@H](C/C=C(\C)C(=O)O)[C@@H](C)[C@H]1C[C@H](OC(C)=O)[C@@]2(C)C3=CC[C@H]4C(C)(C)C(=O)CC[C@]4(C)C3=CC[C@]12C | 25 (≈ 44 µM) | 87 |  | 
6 | CO[C@@H]1C[C@H]2C(C)(C)[C@H](OC(C)=O)CC[C@]2(C)C2=C1[C@]1(C)[C@@H](OC(C)=O)C[C@H]([C@H](C)CC/C=C(\C)C(=O)O)[C@@]1(C)CC2 | 50 (≈ 85.2 µM) | > 85 |  | 
7 | CC(=O)O[C@H]1C[C@H]([C@H](C)CC/C=C(\C)C(=O)O)[C@@]2(C)CCC3=C(CC[C@H]4C(C)(C)[C@@H](O)CC[C@]34C)[C@]12C | 12.5 (≈ 24.3 µM) | > 96 |  | 
8 | CC(=O)O[C@H]1CC[C@]2(C)C3=CC[C@]4(C)[C@@H]([C@H](C)CC/C=C(\C)C(=O)O)C[C@H](O)[C@@]4(C)C3=CC[C@H]2C1(C)C | 6.25 (≈ 12.2 µM) | 13 |  | 
9 | CC(=O)O[C@H]1C[C@H]([C@H](C)CC/C=C(\C)C(=O)O)[C@@]2(C)CCC3=C([C@H](O)C[C@H]4C(C)(C)C(=O)CC[C@]34C)[C@]12C | 50 (≈ 94.6 µM) | > 95 |  | 
10 | CC(=O)O[C@@H](C/C=C(\C)C(=O)O)[C@@H](C)[C@H]1CC[C@@]2(C)C3=C(CC[C@]12C)[C@@]1(C)CC[C@H](OC(C)=O)C(C)(C)[C@@H]1CC3=O | 6.25 (≈ 11 µM) | 32 |  | 
11 | CC(=O)O[C@H]1CC[C@]2(C)C3=C(C(=O)C[C@H]2C1(C)C)[C@]1(C)[C@@H](O)C[C@H]([C@H](C)CC/C=C(\C)C(=O)O)[C@@]1(C)CC3 | 50 (≈ 94.6 µM) | 92 |  | 
12 | CO[C@@H]1C[C@H]2C(C)(C)[C@H](OC(C)=O)CC[C@]2(C)C2=C1[C@]1(C)[C@@H](OC(C)=O)C[C@H]([C@H](C)[C@H](C/C=C(\C)C(=O)O)OC(C)=O)[C@@]1(C)CC2 | 12.5 (≈ 19.4 µM) | 26 |  | 
13 | C/C(=C\CC[C@@H](C)[C@H]1CC[C@@]2(C)C3=C(CC[C@]12C)[C@@]1(C)CCC(=O)C(C)(C)[C@@H]1C[C@H]3O)C(=O)O | 3.13 (≈ 6.65 µM) | 103 |  | 
14 | CC(=O)O[C@@H](C/C=C(\C)C(=O)O)[C@@H](C)[C@H]1CC[C@@]2(C)C3=C(CC[C@]12C)[C@@]1(C)CC[C@H](OC(C)=O)C(C)(C)[C@@H]1C[C@H]3O | 25 (≈ 43.6 µM) | 84 |  | 
15 | CC(=O)O[C@H]1CC[C@]2(C)C3=CC[C@]4(C)[C@@H]([C@H](C)CC/C=C(\C)C(=O)O)C[C@H](OC(C)=O)[C@@]4(C)C3=CC[C@H]2C1(C)C | 0.391 (≈ 0.705 µM) | 32 |  | 
16 | CO[C@@H]1C[C@H]2C(C)(C)[C@@H](OC(C)=O)CC[C@]2(C)C2=C1[C@]1(C)[C@@H](O)C[C@H]([C@H](C)[C@H](C/C=C(\C)C(=O)O)OC(C)=O)[C@@]1(C)CC2 |  |  | 32 | 50 (≈ 82.9 µM)
17 | CC(=O)O[C@H]1C[C@H]([C@H](C)CC/C=C(\C)C(=O)O)[C@@]2(C)CCC3=C(CC[C@H]4C(C)(C)C(=O)CC[C@]34C)[C@]12C | 50 (≈ 97.5 µM) | > 98 |  | 

Row | SMILES | MIC [1] [µg/mL] | IC50 (Vero [2]) [µM] | IC50 (Vero [3]) [µM] | MIC [4] [µg/mL]
18 | CC(=O)O[C@@H](C/C=C(\C)C(=O)O)[C@@H](C)[C@H]1C[C@H](O)[C@@]2(C)C3=C(CC[C@]12C)[C@@]1(C)CCC(=O)C(C)(C)[C@@H]1C[C@H]3O | > 50 | > 92 |  | 
19 | CC(=O)O[C@@H](C/C=C(\C)C(=O)O)[C@@H](C)[C@H]1C[C@H](O)[C@@]2(C)C3=CC[C@H]4C(C)(C)[C@@H](O)CC[C@]4(C)C3=CC[C@]12C | 6.25 (≈ 11.8 µM) | 95 |  | 
20 | CO[C@@H]1C[C@H]2C(C)(C)C(=O)CC[C@]2(C)C2=C1[C@]1(C)[C@@H](OC(C)=O)C[C@H]([C@H](C)[C@H](C/C=C(\C)C(=O)O)OC(C)=O)[C@@]1(C)CC2 | > 50 | > 83 |  | 
21 | CC(=O)O[C@H]1C[C@H]([C@H](C)CC/C=C(\C)C(=O)O)[C@@]2(C)CC=C3C(=CC[C@H]4C(C)(C)[C@H](O)CC[C@]34C)[C@]12C | 25 (≈ 48.8 µM) | 94 |  | 
22 | CC(=O)O[C@@H](C/C=C(\C)C(=O)O)[C@@H](C)[C@H]1CC[C@@]2(C)C3=C(CC[C@]12C)[C@@]1(C)CC[C@@H](O)C(C)(C)[C@@H]1CC3=O | 50 (≈ 94.6 µM) | 95 |  | 
23 | CC(=O)O[C@H]1CC[C@]2(C)C3=CC[C@]4(C)[C@@H]([C@H](C)CC/C=C(\C)C(=O)O)CC[C@@]4(C)C3=CC[C@H]2C1(C)C | > 50 | > 101 |  | 
24 | CC(=O)O[C@@H](C/C=C(\C)C(=O)O)[C@@H](C)[C@H]1C[C@H](OC(C)=O)[C@@]2(C)C3=CC[C@H]4C(C)(C)[C@@H](O)CC[C@]4(C)C3=CC[C@]12C | > 50 | 33 |  | 
25 | CC(=O)O[C@@H](C/C=C(\C)C(=O)O)[C@@H](C)[C@H]1C[C@H](OC(C)=O)[C@@]2(C)C3=C(CC[C@]12C)[C@@]1(C)CC[C@@H](OC(C)=O)C(C)(C)[C@@H]1C[C@H]3O | 12.5 (≈ 19.8 µM) | 28 |  | 
26 | CC(=O)O[C@H]1CC[C@]2(C)C3=C([C@H](OC(C)=O)C[C@H]2C1(C)C)[C@]1(C)[C@@H](O)C[C@H]([C@H](C)CC/C=C(\C)C(=O)O)[C@@]1(C)CC3 | 25 (≈ 43.6 µM) | 31 |  | 
27 | CO[C@@H]1C[C@H]2C(C)(C)[C@H](OC(C)=O)CC[C@]2(C)C2=C1[C@]1(C)CC[C@H]([C@H](C)[C@H](C/C=C(\C)C(=O)O)OC(C)=O)[C@@]1(C)CC2 | 50 (≈ 85.2 µM) | 38 |  | 
28 | CC(=O)O[C@@H](C/C=C(\C)C(=O)O)[C@@H](C)[C@H]1C[C@H](O)[C@@]2(C)C3=C(CC[C@]12C)[C@@]1(C)CC[C@H](OC(C)=O)C(C)(C)[C@@H]1C[C@H]3O | 12.5 (≈ 21.2 µM) | 83 |  | 
29 | C/C(=C\C[C@H](O)[C@@H](C)[C@H]1CC[C@@]2(C)C3=C(CC[C@]12C)[C@@]1(C)CCC(=O)C(C)(C)[C@@H]1CC3)C(=O)O | 50 (≈ 106 µM) | 105 |  | 
30 | CO[C@@H]1C[C@H]2C(C)(C)[C@@H](OC(C)=O)CC[C@]2(C)C2=C1[C@]1(C)[C@@H](OC(C)=O)C[C@H]([C@H](C)CC/C=C(\C)C(=O)O)[C@@]1(C)CC2 | 3.13 (≈ 5.33 µM) | 30 |  | 
31 | CC(=O)O[C@@H](C/C=C(\C)C(=O)O)[C@@H](C)[C@H]1CC[C@@]2(C)C3=C(CC[C@]12C)[C@@]1(C)CC[C@H](O)C(C)(C)[C@@H]1CC3=O | 1.56 (≈ 2.95 µM) | 87 |  | 
32 | CO[C@@H]1C[C@H]2C(C)(C)[C@H](OC(C)=O)CC[C@]2(C)C2=C1[C@]1(C)[C@@H](O)C[C@H]([C@H](C)CC/C=C(\C)C(=O)O)[C@@]1(C)CC2 | 50 (≈ 91.8 µM) | 87 |  | 
33 | CC(=O)O[C@@H]1C[C@H]2C(C)(C)C(=O)CC[C@]2(C)C2=C1[C@]1(C)[C@@H](O)C[C@H]([C@H](C)CC/C=C(\C)C(=O)O)[C@@]1(C)CC2 | 25 (≈ 47.3 µM) | > 95 |  | 
34 | CO[C@@H]1C[C@H]2C(C)(C)C(=O)CC[C@]2(C)C2=C1[C@]1(C)CC[C@H]([C@H](C)CC/C=C(\C)C(=O)O)[C@@]1(C)CC2 | 25 (≈ 51.6 µM) | > 103 |  | 
